Assay results reported in patent US12077503B2, “Substituted cyclic amides and their use as herbicides” (FMC CORPORATION, priority 2015, dated 2024).

Assays:
Assay type in all cases: in vivo
[1] = system: barnyardgrass (Echinochloa crus-galli); assay: Test B flooded paddy test; conditions: Echinochloa crus-galli, 250 g ai/ha, Flood; 0 to 100 scale where 0 is no effect and 100 is complete control; read-out: Barnyardgrass plant response rating
In short: (§1)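 Plants at 2-leaf stage flooded to 3 cm above soil, with compounds applied directly to paddy water and that depth maintained. Plants kept in greenhouse 13–15 d. Visual rating versus controls on a 0 (no effect) to 100 (complete control) scale.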

rice (Oryra sativa) = assay: Test B flooded paddy test; conditions: Oryza sativa, 250 g ai/ha, Flood; 0 to 100 scale where 0 is no effect and 100 is complete control; read-out: Rice plant response rating
In short: as §1

[2] = system: ducksalad (Heteranthera limosa); assay: Test B flooded paddy test; conditions: Heteranthera limosa, 250 g ai/ha, Flood; 0 to 100 scale where 0 is no effect and 100 is complete control; read-out: Ducksalad plant response rating
In short: as §1

[3] = system: sedge, umbrella (small-flower umbrella sedge, Cyperus difformis); assay: Test B flooded paddy test; conditions: Cyperus difformis, 250 g ai/ha, Flood; 0 to 100 scale where 0 is no effect and 100 is complete control; read-out: Sedge, Umbrella plant response rating
In short: as §1

[4] = system: barnyardgrass (Echinochloa crus-galli); assay: Test A preemergence; conditions: Echinochloa crus-galli, pre-emergence, 240 h
In short: (§2)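 Seeded soil received test chemicals as a preemergence directed spray, and seedlings at one to two leaves, 2–10 cm tall, received them postemergence, in a non-phytotoxic, surfactant-containing solvent mixture. Pots were held in a greenhouse for approximately 10 d, then rated for injury from 0, no effect, to 100, complete control.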

[5] = system: ragweed (common ragweed, Ambrosia elatior); assay: Test A preemergence; conditions: Ambrosia artemisiifolia, pre-emergence, 240 h
In short: as §2

[6] = system: ryegrass, Italian (Italian ryegrass, Lolium multiflorum); assay: Test A preemergence; conditions: Lolium multiflorum, pre-emergence, 240 h
In short: as §2

[7] = system: giant foxtail (Setaria faberii); assay: Test A preemergence; conditions: Setaria faberi, pre-emergence, 240 h
In short: as §2

Kochia (Kochia scoparia) [8] = assay: Test A preemergence; conditions: Bassia scoparia, pre-emergence, 240 h
In short: as §2

[9] = system: pigweed (Amaranthus retroflexus); assay: Test A preemergence; conditions: Amaranthus retroflexus, pre-emergence, 240 h
[10] = system: barnyardgrass (Echinochloa crus-galli); assay: Test A postemergence; conditions: Echinochloa crus-galli, post-emergence, 240 h, read-out: Plant response rating, Barnyardgrass
In short: as §2

[11] = system: ragweed (common ragweed, Ambrosia elatior); assay: Test A postemergence; conditions: Ambrosia artemisiifolia, post-emergence, 240 h, read-out: Plant response rating, Ragweed
In short: as §2

corn (Zea mays) = assay: Test A postemergence; conditions: Zea mays, post-emergence, 240 h
In short: as §2

[12] = system: ryegrass, Italian (Italian ryegrass, Lolium multiflorum); assay: Test A postemergence; conditions: Lolium multiflorum, post-emergence, 240 h, read-out: Plant response rating, Ryegrass, Italian
In short: as §2

[13] = system: giant foxtail (Setaria faberii); assay: Test A postemergence; conditions: Setaria faberi, post-emergence, 240 h, read-out: Plant response rating, Foxtail, Giant
In short: as §2

[14] = system: Galium (catchweed bedstraw, Galium aparine); assay: Test A postemergence; conditions: Galium, post-emergence, 240 h, read-out: Plant response rating, Galium
In short: as §2

Kochia (Kochia scoparia) [15] = assay: Test A postemergence; conditions: Bassia scoparia, post-emergence, 240 h, read-out: Plant response rating, Kochia
In short: as §2

[16] = system: blackgrass (Alopecurus myosuroides); assay: Test A postemergence; conditions: Alopecurus myosuroides, post-emergence, 240 h, read-out: Plant response rating, Blackgrass
In short: as §2

[17] = system: pigweed (Amaranthus retroflexus); assay: Test A postemergence; conditions: Amaranthus retroflexus, post-emergence, 240 h, read-out: Plant response rating, Pigweed
In short: as §2

[18] = system: wheat (Triticum aestivum); assay: Test A postemergence; conditions: Triticum aestivum, post-emergence, 240 h, read-out: Plant response rating, Wheat
In short: as §2

[19] = 125 g ai/ha, Postemergence, visual injury after approximately 10 d, 0 to 100 scale where 0 is no effect and 100 is complete control
[20] = 500 g ai/ha, postemergence, visual injury, 0 to 100 scale (0 no effect, 100 complete control), approx. 10 d

COc1ccc([C@H]2CN(C)C(=O)[C@@H]2C(=O)Nc2ccccc2F)cc1F [Compound 1020]
pest or weed control at 250 g/ha [1]: 75%
pest or weed control at 250 g/ha (rice (Oryra sativa)): 20%
pest or weed control at 250 g/ha [2]: 90%
pest or weed control at 250 g/ha [3]: 0%
pest or weed control at 125 g/ha ([4]; 125 g ai/ha, Preemergence, visual injury rating after approximately 10 d, read-out: Barnyardgrass plant response rating (0 to 100 scale, 0 is no effect, 100 is complete control)): 90%
pest or weed control at 500 g/ha ([4]; 500 g ai/ha, preemergence, visual injury rating about 10 d after treatment, 0 to 100 scale (0 no effect, 100 complete control), read-out: Barnyardgrass plant response rating): 90%
pest or weed control at 125 g/ha ([5]; 125 g ai/ha, Preemergence, visual injury rating after approximately 10 d, read-out: Ragweed plant response rating (0 to 100 scale, 0 is no effect, 100 is complete control)): 0%
pest or weed control at 500 g/ha ([5]; 500 g ai/ha, preemergence, visual injury rating about 10 d after treatment, 0 to 100 scale (0 no effect, 100 complete control), read-out: Ragweed plant response rating): 20%
pest or weed control at 125 g/ha ([6]; 125 g ai/ha, Preemergence, visual injury rating after approximately 10 d, read-out: Ryegrass, Italian plant response rating (0 to 100 scale, 0 is no effect, 100 is complete control)): 0%
pest or weed control at 500 g/ha ([6]; 500 g ai/ha, preemergence, visual injury rating about 10 d after treatment, 0 to 100 scale (0 no effect, 100 complete control), read-out: Ryegrass, Italian plant response rating): 30%
pest or weed control at 125 g/ha ([7]; 125 g ai/ha, Preemergence, visual injury rating after approximately 10 d, read-out: Foxtail, Giant plant response rating (0 to 100 scale, 0 is no effect, 100 is complete control)): 90%
pest or weed control at 500 g/ha ([7]; 500 g ai/ha, preemergence, visual injury rating about 10 d after treatment, 0 to 100 scale (0 no effect, 100 complete control), read-out: Foxtail, Giant plant response rating): 90%
pest or weed control at 125 g/ha (Kochia (Kochia scoparia) [8]; 125 g ai/ha, Preemergence, visual injury rating after approximately 10 d, read-out: Kochia plant response rating (0 to 100 scale, 0 is no effect, 100 is complete control)): 30%
pest or weed control at 500 g/ha (Kochia (Kochia scoparia) [8]; 500 g ai/ha, preemergence, visual injury rating about 10 d after treatment, 0 to 100 scale (0 no effect, 100 complete control), read-out: Kochia plant response rating): 20%
pest or weed control at 125 g/ha ([9]; 125 g ai/ha, Preemergence, visual injury rating after approximately 10 d, read-out: Pigweed plant response rating (0 to 100 scale, 0 is no effect, 100 is complete control)): 30%
pest or weed control at 500 g/ha ([9]; 500 g ai/ha, preemergence, visual injury rating about 10 d after treatment, 0 to 100 scale (0 no effect, 100 complete control), read-out: Pigweed plant response rating): 40%
pest or weed control at 125 g/ha [10, 19]: 90%
pest or weed control at 500 g/ha [10, 20]: 90%
pest or weed control at 125 g/ha [11, 19]: 0%
pest or weed control at 500 g/ha [11, 20]: 0%
Corn plant response rating (crop injury, 0 = no effect, 100 = complete kill) at 125 g/ha (corn (Zea mays); [19]): 0%
Corn plant response rating (crop injury, 0 = no effect, 100 = complete kill) at 500 g/ha (corn (Zea mays); [20]): 30%
pest or weed control at 125 g/ha [12, 19]: 30%
pest or weed control at 500 g/ha [12, 20]: 30%
pest or weed control at 125 g/ha [13, 19]: 90%
pest or weed control at 500 g/ha [13, 20]: 90%
pest or weed control at 125 g/ha [14, 19]: 40%
pest or weed control at 500 g/ha [14, 20]: 60%
pest or weed control at 125 g/ha (Kochia (Kochia scoparia) [15]; [19]): 50%
pest or weed control at 500 g/ha (Kochia (Kochia scoparia) [15]; [20]): 50%
pest or weed control at 125 g/ha [16, 19]: 0%
pest or weed control at 500 g/ha [16, 20]: 20%
pest or weed control at 125 g/ha [17, 19]: 30%
pest or weed control at 500 g/ha [17, 20]: 30%
plant injury at 125 g/ha [18, 19]: 0%
plant injury at 500 g/ha [18, 20]: 30%
